In the test the target is T1, human B1R (Homo sapiens, UniProt P46663).
T1 construct: expressed in transfected cells; host or cells: CHO K1 cells (Chinese Hamster Ovary), stably transfected
T1 sequence (P46663 1-353): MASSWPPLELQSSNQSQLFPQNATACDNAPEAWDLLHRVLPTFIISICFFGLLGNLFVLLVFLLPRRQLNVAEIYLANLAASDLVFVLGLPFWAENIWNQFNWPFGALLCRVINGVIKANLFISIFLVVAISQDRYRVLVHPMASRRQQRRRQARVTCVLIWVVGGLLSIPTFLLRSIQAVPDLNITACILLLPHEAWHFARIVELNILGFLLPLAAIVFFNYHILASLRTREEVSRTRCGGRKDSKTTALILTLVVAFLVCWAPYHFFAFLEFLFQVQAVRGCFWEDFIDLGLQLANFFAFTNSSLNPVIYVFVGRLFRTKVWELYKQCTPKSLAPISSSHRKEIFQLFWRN
Description: Functional assay at bradykinin receptor 1 (B1R): Ca2+ fluorescence (Fluo-4) in FLIPR/Novostar, antagonist mode. In kind it is cell-based. The following applies: test substance 10 µM; CHO K1 cells stably transfected with human B1R gene (hB1R-Zellen); agonist Lys-Des-Arg9-Bradykinin at EC80; % inhibition relative to maximal achievable inhibition; read-out: % Inhibierung (human B1R) bei 10 µM. The method, boiled down:
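Antagonism read as suppression of the Ca2+ rise in Fluo-4-loaded, hB1R-transfected CHO K1 cells when Lys-Des-Arg9-bradykinin (EC80) follows a 6–20 min compound preincubation. Maximal fluorescence counts, measured on FLIPR or Novostar, yield % inhibition relative to maximum; IC50 values come from concentration series run in duplicate or triplicate.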

Each structure is given as a SMILES string.

In the case of `COCCN1CCC(NC(=O)Cn2nc(CS(=O)(=O)c3c(C)cc(OC)cc3C)cc2C)C(C)(C)C1` (centres unmarked) [CC-157, 2-[3-[[(4-Methoxy-2,6-dimethyl-phenyl)sulfonyl]-methyl]-5-methyl-1H-pyrazol-1-yl]-N-[1-(2-methoxy-ethyl)-3,3-dimethyl-piperidin-4-yl]-acetamid], the inhibition at 10 µM is 61%.

Consider `COc1cc(C)c(S(=O)(=O)Cc2cn(CC(=O)NC3CCC(N4CCCC4)CC3(C)C)nn2)c(C)c1` (centres unmarked) [CC-158, N-(2,2-Dimethyl-4-pyrrolidin-1-yl-cyclohexyl)-2-[4-[[(4-methoxy-2,6-dimethyl-phenyl)sulfonyl]-methyl]-1H-[1,2,3]triazol-1-yl]-acetamid], for which the inhibition at 10 µM stood at 100%.

In the case of `COc1cc(C)c(S(=O)(=O)Cc2cc(C)n(CC(=O)NC3CCN(C(C)=O)CC3(C)C)n2)c(C)c1` (centres unmarked) [CC-159, N-(1-Acetyl-3,3-dimethyl-piperidin-4-yl)-2-[3-[[(4-methoxy-2,6-dimethyl-phenyl)sulfonyl]-methyl]-5-methyl-1 H-pyrazol-1-yl]-acetamid], the inhibition at 10 µM was 50%.

For `COCCN1CCC(NC(=O)Cn2cc(CS(=O)(=O)c3c(C)cc(OC)cc3C)nn2)C(C)(C)C1` (centres unmarked) [CC-160, 2-[4-[[(4-Methoxy-2,6-dimethyl-phenyl)sulfonyl]-methyl]-1H-[1,2,3]triazol-1-yl]-N-[1-(2-methoxy-ethyl)-3,3-dimethyl-piperidin-4-yl]-acetamid], the inhibition at 10 µM was determined as 100%.

For the compound `COc1cc(C)c(S(=O)(=O)Cc2cn(CC(=O)NC3CCN(C(C)=O)CC3(C)C)nn2)c(C)c1` (centres unmarked) [CC-161, N-(1-Acetyl-3,3-dimethyl-piperidin-4-yl)-2-[4-[[(4-methoxy-2,6-dimethyl-phenyl)sulfonyl]-methyl]-1H-[1,2,3]triazol-1-yl]-acetamid], the inhibition at 10 µM worked out at 92%.

For the compound `COc1cc(C)c(S(=O)(=O)Cc2cn(CC(=O)NC3CCC(N4CCN(C)CC4)CC3(C)C)nn2)c(C)c1` (centres unmarked) [CC-162, N-[2,2-Dimethyl-4-(4-methyl-piperazin-1-yl)-cyclohexyl]-2-[4-[[(4-methoxy-2,6-dimethylphenyl)sulfonyl]-methyl]-1H-[1,2,3]triazol-1-yl]-acetamid], the inhibition at 10 µM came out at 100%.

As for `COc1cc(C)c(S(=O)(=O)Cc2cc(C)n(CC(=O)NC3CCC(N4CCN(C)CC4)CC3(C)C)n2)c(C)c1` (centres unmarked) [CC-163, N-[2,2-Dimethyl-4-(4-methyl-piperazin-1-yl)-cyclohexyl]-2-[3-[[(4-methoxy-2,6-dimethyl-phenyl)sulfonyl]-methyl]-5-methyl-1H-pyrazol-1-yl]-acetamid], the inhibition at 10 µM worked out at 99%.

As to `COc1cc(C)c(S(=O)(=O)Cc2c(C)nn(CC(=O)NC3CCC(N4CCCC4)CC3)c2C)c(C)c1` (centres unmarked) [CC-164, 2-[4-[[(4-Methoxy-2,6-dimethyl-phenyl)sulfonyl]-methyl]-3,5-dimethyl-1H-pyrazol-1-yl]-N-(4-pyrrolidin-1-yl-cyclohexyl)-acetamid], the inhibition at 10 µM is 100%.

As to `COCCN1CCC(NC(=O)Cn2nc(C)c(CS(=O)(=O)c3c(C)cc(OC)cc3C)c2C)C(C)(C)C1` (centres unmarked) [CC-165, 2-[4-[[(4-Methoxy-2,6-dimethyl-phenyl)sulfonyl]-methyl]-3,5-dimethyl-1H-pyrazol-1-yl]-N-[1-(2-methoxy-ethyl)-3,3-dimethyl-piperidin-4-yl]-acetamid], the inhibition at 10 µM turned out to be 100%.

Regarding `COc1cc(C)c(S(=O)(=O)Cc2c(C)nn(CC(=O)NC3CCC(N4CCN(C)CC4)CC3(C)C)c2C)c(C)c1` (centres unmarked) [CC-166, N-[2,2-D imethyl-4-(4-methyl-piperazin-1-yl)-cyclohexyl]-2-[4-[[(4-methoxy-2,6-dimethyl-phenyl)sulfonyl]-methyl]-3,5-dimethyl-1 H-pyrazol-1-yl]-acetamid], the inhibition at 10 µM amounted to 100%.

Take `COc1cc(C)c(S(=O)(=O)Cc2cn(CC(=O)NC3CCC(N4CCCC4)CC3)nn2)c(C)c1` (centres unmarked) [CC-167, 2-[4-[[(4-Methoxy-2,6-dimethyl-phenyl)sulfonyl]-methyl]-1H-[1,2,3]triazol-1-yl]-N-(4-pyrrolidin-1-yl-cyclohexyl)-acetamid]: the inhibition at 10 µM was 100%.

Take `COc1cc(C)c(S(=O)(=O)Cc2c(C)nn(CC(=O)NC3CCC(N(C)C)CC3)c2C)c(C)c1` (centres unmarked) [CC-168, N-(4-Dimethylamino-cyclohexyl)-2-[4-[[(4-methoxy-2,6-dimethyl-phenyl)sulfonyl]-methyl]-3,5-dimethyl-1 H-pyrazol-1-yl]-acetamid]: the inhibition at 10 µM amounted to 100%.

`COc1cc(C)c(S(=O)(=O)Cc2cn(CC(=O)NC3CCC(N(C)C)CC3)nn2)c(C)c1` (centres unmarked) [CC-169, N-(4-Dimethylamino-cyclohexyl)-2-[4-[[(4-methoxy-2,6-dimethyl-phenyl)sulfonyl]-methyl]-1H-[1,2,3]triazol-1-yl]-acetamid]: the inhibition at 10 µM was determined as 100%.

In the case of `COc1cc(C)c(S(=O)(=O)Cc2c(C)nn(CC(=O)NC3CCC(N4CCCC4)CC3(C)C)c2C)c(C)c1` (centres unmarked) [CC-170, N-(2,2-Dimethyl-4-pyrrolidin-1-yl-cyclohexyl)-2-[4-[[(4-methoxy-2,6-dimethyl-phenyl)sulfonyl]-methyl]-3,5-dimethyl-1H-pyrazol-1-yl]-acetamid], the inhibition at 10 µM came out at 99%.

For the compound `COc1cc(C)c(S(=O)(=O)Cc2cc(C)n(CC(=O)NC3CCNCC3(C)C)n2)c(C)c1` (centres unmarked) [CC-171, N-(3,3-Dimethyl-piperidin-4-yl)-2-[3-[[(4-methoxy-2,6-dimethyl-phenyl)sulfonyl]-methyl]-5-methyl-1 H-pyrazol-1-yl]-acetamid], the inhibition at 10 µM is 71%.

On to `COc1cc(C)c(S(=O)(=O)Cc2c(C)nn(CC(=O)NC3CCC(c4ccncc4)CC3(C)C)c2C)c(C)c1` (centres unmarked) [CC-172, N-(2,2-Dimethyl-4-pyridin-4-yl-cyclohexyl)-2-[4-[[(4-methoxy-2,6-dimethyl-phenyl)sulfonyl]-methyl]-3,5-dimethyl-1 H-pyrazol-1-yl]-acetamid], for which the inhibition at 10 µM came to 100%.

For the compound `COc1cc(C)c(S(=O)(=O)Cc2c(C)nn(CC(=O)NC3CCNCC3)c2C)c(C)c1` [CC-173, 2-[4-[[(4-Methoxy-2,6-dimethyl-phenyl)sulfonyl]-methyl]-3,5-dimethyl-1H-pyrazol-1-yl]-N-piperidin-4-yl-acetamid], the inhibition at 10 µM was determined as 85%.

For `COc1cc(C)c(S(=O)(=O)Cc2c(C)nn(CC(=O)NC3CCC(NC4CC4)CC3(C)C)c2C)c(C)c1` (centres unmarked) [CC-174, N-[4-(Cyclopropylamino)-2,2-dimethyl-cyclohexyl]-2-[4-([(4-methoxy-2,6-dimethyl-phenyl)sulfonyl]-methyl]-3,5-dimethyl-1 H-pyrazol-1-yl]-acetamid], the inhibition at 10 µM came to 100%.

In the case of `COc1cc(C)c(S(=O)(=O)Cc2cn(CC(=O)NC3CCC(NC4CC4)CC3(C)C)nn2)c(C)c1` (centres unmarked) [CC-175, N-[4-(Cyclopropylamino)-2,2-dimethyl-cyclohexyl]-2-[4-[[(4-methoxy-2,6-dimethyl-phenyl)sulfonyl]-methyl]-1 H-[1,2,3]triazol-1-yl]-acetamid], the inhibition at 10 µM was 100%.

As for `COc1cc(C)c(S(=O)(=O)Cc2cn(CC(=O)NC3CCNCC3(C)C)nn2)c(C)c1` (centres unmarked) [CC-176, N-(3,3-Dimethyl-piperidin-4-yl)-2-[4-[[(4-methoxy-2,6-dimethyl-phenyl)sulfonyl]-methyl]-1 H-[1,2,3]triazol-1-yl]-acetamid], the inhibition at 10 µM turned out to be 100%.

Regarding `COc1cc(C)c(S(=O)(=O)Cc2cc(C)n(CC(=O)NC3CCC(NC4CC4)CC3(C)C)n2)c(C)c1` (centres unmarked) [CC-177, N-[4-(Cyclopropylamino)-2,2-dimethyl-cyclohexyl]-2-[3-[[(4-methoxy-2,6-dimethyl-phenyl)sulfonyl]-methyl]-5-methyl-1 H-pyrazol-1-yl]-acetamid], the inhibition at 10 µM was 99%.

As for `COc1cc(C)c(S(=O)(=O)Cc2cn(CC(=O)NC3CCC(c4ccncc4)CC3(C)C)nn2)c(C)c1` (centres unmarked) [CC-178, N-(2,2-Dimethyl-4-pyridin-4-yl-cyclohexyl)-2-[4-[[(4-methoxy-2,6-dimethyl-phenyl)sulfonyl]-methyl]-1 H-[1,2,3]triazol-1-yl]-acetamid], the inhibition at 10 µM was determined as 100%.

As for `COc1cc(C)c(S(=O)(=O)Cc2c(C)nn(CC(=O)NC3CCN(C(C)=O)CC3(C)C)c2C)c(C)c1` (centres unmarked) [CC-179, N-(1-Acetyl-3,3-dimethyl-piperidin-4-yl)-2-[4-[[(4-methoxy-2,6-dimethyl-phenyl)sulfonyl]-methyl]-3,5-dimethyl-1 H-pyrazol-1-yl]-acetamid], the inhibition at 10 µM worked out at 44%.

As for `COc1cc(C)c(S(=O)(=O)Cc2c(C)nn(CC(=O)NC3CCNCC3(C)C)c2C)c(C)c1` (centres unmarked) [CC-180, N-(3,3-Dimethyl-piperidin-4-yl)-2-[4-[[(4-methoxy-2,6-dimethyl-phenyl)sulfonyl]-methyl]-3,5-dimethyl-1 H-pyrazol-1-yl]-acetamid], the inhibition at 10 µM came to 98%.

On to `COc1cc(C)c(S(=O)(=O)Cc2cn(CC(=O)N(C)C3CCNCC3(C)C)nn2)c(C)c1` (centres unmarked) [CC-181, N-(3,3-Dimethyl-piperidin-4-yl)-2-[4-[[(4-methoxy-2,6-dimethyl-phenyl)sulfonyl]-methyl]-1 H-[1,2,3]-triazol-1-yl]-N-methyl-acetamid], for which the inhibition at 10 µM worked out at 99%.

Turning to `COc1cc(C)c(S(=O)(=O)Cc2cn(CC(=O)NC3CCNCC3)nn2)c(C)c1` [CC-182, 2-[4-[[(4-Methoxy-2,6-dimethyl-phenyl)sulfonyl]-methyl]-1H-[1,2,3]triazol-1-yl]-N-piperidin-4-yl-acetamid], the inhibition at 10 µM worked out at 99%.

These data come from patent EP2857388A1, “Azoles containing sulfone” (Grünenthal GmbH, priority 2013, dated 2015).
